In US10202361B2, “Pyridazinones as herbicides” (E I DU PONT DE NEMOURS AND COMPANY, priority 2014, dated 2019):
Like-named read-outs stand apart in the source and are kept apart here.

How the values were obtained:
Assay in all cases: Test C pre-/postemergence greenhouse herbicide test
Assay type in all cases: in vivo
[1] = system: velvetleaf (Abutilon theophrasti); details: Abutilon theophrasti, Velvetleaf, read-out: Plant response rating; for pest or weed control at 62 g/ha: 62 g ai/ha; for pest or weed control at 125 g/ha: 125 g ai/ha
Source text: (§1) Seeds of plant species selected from blackgrass (Alopecurus myosuroides), bromegrass, downy (downy bromegrass, Bromus tectorum), foxtail, green (green foxtail, Setaria viridis), ryegrass, Italian (Italian ryegrass, Lolium multiflorum), wheat (winter wheat, Triticum aestivum), oat, wild (wild oat, Avena fatua), galium (catchweed bedstraw, Galium aparine), bermudagrass (Cynodon dactylon), surinam grass (Brachiaria decumbens), cocklebur (common cocklebur, Xanthium strumarium), corn (Zea mays), crabgrass, large (large crabgrass, Digitaria sanguinalis), cupgrass, woolly (woolly cupgrass, Eriochloa villosa), foxtail, giant (giant foxtail, Setaria faberii), goosegrass (Eleusine indica), johnsongrass (Sorghum halepense), kochia (Kochia scoparia), lambsquarters (Chenopodium album), morningglory (Ipomoea coccinea), nightshade (eastern black nightshade, Solanum ptycanthum), nutsedge, yellow (yellow nutsedge, Cyperus esculentus), pigweed (Amaranthus retroflexus), ragweed (common ragweed, Ambrosia elatior), soybean (Glycine max), sunflower (common oilseed sunflower, Helianthus annuus), Russian thistle (Salsola kali), barnyardgrass (Echinochloa crus-galli), oilseed rape (Brassica napus), waterhemp (common waterhemp, Amaranthus rudis), and velvetleaf (Abutilon theophrasti) were planted into a blend of loam soil and sand and treated preemergence with test chemicals formulated in a non-phytotoxic solvent mixture which included a surfactant.
(§2) At the same time, plants selected from these crop and weed species and also barley (winter barley, Hordeum vulgare), canarygrass (Phalaris minor), windgrass (Apera spica-venti), deadnettle (henbit deadnettle, Lamium amplexicaule), and chickweed (common chickweed, Stellaria media) were planted in pots containing Redi-Earth® planting medium (Scotts Company, 14111 Scottslawn Road, Marysville, Ohio 43041) comprising spaghnum peat moss, vermiculite, wetting agent and starter nutrients and treated with postemergence applications of test chemicals formulated in the same manner. Plants ranged in height from 2 to 18 cm (1- to 4-leaf stage) for postemergence treatments. Treated plants and controls were maintained in a greenhouse for 13 to 15 d, after which time all species were compared to controls and visually evaluated. Plant response ratings, summarized in Table C, are based on a scale of 0 to 100 where 0 is no effect and 100 is complete control. A dash (-) response means no test result.

[2] = system: corn (Zea mays); details: Zea mays, Corn, read-out: Plant response rating; for plant injury at 31 g/ha: 31 g ai/ha; for plant injury at 62 g/ha: 62 g ai/ha; for plant injury at 125 g/ha: 125 g ai/ha; for plant injury at 250 g/ha: 250 g ai/ha
Source text: as §1, §2

[3] = system: ryegrass, Italian (Italian ryegrass, Lolium multiflorum); details: Lolium multiflorum, Ryegrass, Italian, read-out: Plant response rating; for pest or weed control at 31 g/ha: 31 g ai/ha; for pest or weed control at 62 g/ha: 62 g ai/ha; for pest or weed control at 125 g/ha: 125 g ai/ha; for pest or weed control at 250 g/ha: 250 g ai/ha
Source text: as §1, §2

[4] = system: soybean (Glycine max); details: Glycine max, Soybean, read-out: Plant response rating; for plant injury at 62 g/ha: 62 g ai/ha; for plant injury at 125 g/ha: 125 g ai/ha; for plant injury at 250 g/ha: 250 g ai/ha
Source text: as §1, §2

[5] = system: crabgrass, Large (large crabgrass, Digitaria sanguinalis); details: Digitaria sanguinalis, Crabgrass, Large, read-out: Plant response rating; for pest or weed control at 31 g/ha: 31 g ai/ha; for pest or weed control at 62 g/ha: 62 g ai/ha; for pest or weed control at 125 g/ha: 125 g ai/ha; for pest or weed control at 250 g/ha: 250 g ai/ha
Source text: as §1, §2

[6] = system: nutsedge, yellow (yellow nutsedge, Cyperus esculentus); details: Cyperus, Nutsedge, Yellow, read-out: Plant response rating; for pest or weed control at 31 g/ha: 31 g ai/ha; for pest or weed control at 62 g/ha: 62 g ai/ha; for pest or weed control at 125 g/ha: 125 g ai/ha; for pest or weed control at 250 g/ha: 250 g ai/ha
Source text: as §1, §2

[7] = system: lambsquarters (Chenopodium album)
Source text: as §1, §2

[8] = system: kochia (Kochia scoparia)
Source text: as §1, §2

[9] = system: foxtail, giant (giant foxtail, Setaria faberii); details: Setaria faberi, Foxtail, Giant, read-out: Plant response rating; for pest or weed control at 31 g/ha: 31 g ai/ha; for pest or weed control at 62 g/ha: 62 g ai/ha; for pest or weed control at 125 g/ha: 125 g ai/ha; for pest or weed control at 250 g/ha: 250 g ai/ha
Source text: as §1, §2

[10] = system: galium (catchweed bedstraw, Galium aparine); details: Galium, read-out: Plant response rating; for pest or weed control at 31 g/ha: 31 g ai/ha; for pest or weed control at 62 g/ha: 62 g ai/ha; for pest or weed control at 125 g/ha: 125 g ai/ha; for pest or weed control at 250 g/ha: 250 g ai/ha
Source text: as §1, §2

[11] = post-emergence, Postemergence, 31 g ai/ha

SMILES: Cc1cc(=O)n(-c2ccc(F)cc2)nc1Oc1ccnc(C(F)(F)F)c1 [Compound 14, 2-(4-fluorophenyl)-5-methyl-6-[[2-(trifluoromethyl)-4-pyridinyl]oxy]-3 (2H)-pyridazinone]
- pest or weed control at 31 g/ha [1, 11]: 10%
- pest or weed control at 62 g/ha ([1]; post-emergence, Postemergence): 30%
- pest or weed control at 125 g/ha ([1]; post-emergence, Postemergence): 50%
- pest or weed control at 62 g/ha ([1]; pre-emergence, Preemergence): 10%
- pest or weed control at 125 g/ha ([1]; pre-emergence, Preemergence): 20%
- pest or weed control at 250 g/ha ([1]; pre-emergence, Preemergence, 250 g ai/ha): 100%
- plant injury at 31 g/ha ([2]; post-emergence, Postemergence): 20%
- plant injury at 62 g/ha ([2]; post-emergence, Postemergence): 35%
- plant injury at 125 g/ha ([2]; post-emergence, Postemergence): 40%
- plant injury at 250 g/ha ([2]; post-emergence, Postemergence): 40%
- plant injury at 31 g/ha ([2]; pre-emergence, Preemergence): 0%
- plant injury at 62 g/ha ([2]; pre-emergence, Preemergence): 35%
- plant injury at 125 g/ha ([2]; pre-emergence, Preemergence): 50%
- plant injury at 250 g/ha ([2]; pre-emergence, Preemergence): 75%
- pest or weed control at 31 g/ha ([3]; post-emergence, Postemergence): 5%
- pest or weed control at 62 g/ha ([3]; post-emergence, Postemergence): 5%
- pest or weed control at 125 g/ha ([3]; post-emergence, Postemergence): 10%
- pest or weed control at 250 g/ha ([3]; post-emergence, Postemergence): 25%
- pest or weed control at 31 g/ha ([3]; pre-emergence, Preemergence): 0%
- pest or weed control at 62 g/ha ([3]; pre-emergence, Preemergence): 5%
- pest or weed control at 125 g/ha ([3]; pre-emergence, Preemergence): 30%
- pest or weed control at 250 g/ha ([3]; pre-emergence, Preemergence): 50%
- plant injury at 31 g/ha [4, 11]: 90%
- plant injury at 62 g/ha ([4]; post-emergence, Postemergence): 90%
- plant injury at 125 g/ha ([4]; post-emergence, Postemergence): 95%
- plant injury at 250 g/ha ([4]; post-emergence, Postemergence): 95%
- plant injury at 62 g/ha ([4]; pre-emergence, Preemergence): 40%
- plant injury at 125 g/ha ([4]; pre-emergence, Preemergence): 55%
- plant injury at 250 g/ha ([4]; pre-emergence, Preemergence): 75%
- pest or weed control at 31 g/ha ([5]; post-emergence, Postemergence): 10%
- pest or weed control at 62 g/ha ([5]; post-emergence, Postemergence): 10%
- pest or weed control at 125 g/ha ([5]; post-emergence, Postemergence): 15%
- pest or weed control at 250 g/ha ([5]; post-emergence, Postemergence): 30%
- pest or weed control at 31 g/ha ([5]; pre-emergence, Preemergence): 80%
- pest or weed control at 62 g/ha ([5]; pre-emergence, Preemergence): 100%
- pest or weed control at 125 g/ha ([5]; pre-emergence, Preemergence): 100%
- pest or weed control at 250 g/ha ([5]; pre-emergence, Preemergence): 100%
- pest or weed control at 31 g/ha ([6]; post-emergence, Postemergence): 5%
- pest or weed control at 62 g/ha ([6]; post-emergence, Postemergence): 5%
- pest or weed control at 125 g/ha ([6]; post-emergence, Postemergence): 5%
- pest or weed control at 250 g/ha ([6]; post-emergence, Postemergence): 10%
- pest or weed control at 31 g/ha ([6]; pre-emergence, Preemergence): 0%
- pest or weed control at 62 g/ha ([6]; pre-emergence, Preemergence): 5%
- pest or weed control at 125 g/ha ([6]; pre-emergence, Preemergence): 25%
- pest or weed control at 250 g/ha ([6]; pre-emergence, Preemergence): 25%
- Plant response rating ([7]; Postemergence, 31 g ai/ha): 40
- Plant response rating ([7]; Postemergence, 62 g ai/ha): 40
- Plant response rating ([7]; Postemergence, 125 g ai/ha): 45
- Plant response rating ([7]; Postemergence, 250 g ai/ha): 45
- Plant response rating ([7]; Preemergence, 31 g ai/ha): 55
- Plant response rating ([7]; Preemergence, 62 g ai/ha): 95
- Plant response rating ([7]; Preemergence, 125 g ai/ha): 95
- Plant response rating ([7]; Preemergence, 250 g ai/ha): 98
- Plant response rating ([8]; Postemergence, 31 g ai/ha): 25
- Plant response rating ([8]; Postemergence, 62 g ai/ha): 35
- Plant response rating ([8]; Postemergence, 125 g ai/ha): 55
- Plant response rating ([8]; Postemergence, 250 g ai/ha): 80
- Plant response rating ([8]; Preemergence, 31 g ai/ha): 45
- Plant response rating ([8]; Preemergence, 62 g ai/ha): 75
- Plant response rating ([8]; Preemergence, 125 g ai/ha): 90
- Plant response rating ([8]; Preemergence, 250 g ai/ha): 90
- pest or weed control at 31 g/ha ([9]; post-emergence, Postemergence): 5%
- pest or weed control at 62 g/ha ([9]; post-emergence, Postemergence): 10%
- pest or weed control at 125 g/ha ([9]; post-emergence, Postemergence): 10%
- pest or weed control at 250 g/ha ([9]; post-emergence, Postemergence): 15%
- pest or weed control at 31 g/ha ([9]; pre-emergence, Preemergence): 80%
- pest or weed control at 62 g/ha ([9]; pre-emergence, Preemergence): 98%
- pest or weed control at 125 g/ha ([9]; pre-emergence, Preemergence): 100%
- pest or weed control at 250 g/ha ([9]; pre-emergence, Preemergence): 100%
- pest or weed control at 31 g/ha ([10]; post-emergence, Postemergence): 50%
- pest or weed control at 62 g/ha ([10]; post-emergence, Postemergence): 55%
- pest or weed control at 125 g/ha ([10]; post-emergence, Postemergence): 55%
- pest or weed control at 250 g/ha ([10]; post-emergence, Postemergence): 75%
- pest or weed control at 31 g/ha ([10]; pre-emergence, Preemergence): 60%
- pest or weed control at 62 g/ha ([10]; pre-emergence, Preemergence): 98%
- pest or weed control at 125 g/ha ([10]; pre-emergence, Preemergence): 100%
- pest or weed control at 250 g/ha ([10]; pre-emergence, Preemergence): 100%
